Assay results reported in PMC6732362, “Cancer-associated variants of human NQO1: impacts on inhibitor binding and cooperativity” (Bioscience Reports, 2019).

Legend:
human wild-type NQO1 [1] = target: T1, human wild-type NQO1 (Homo sapiens, UniProt P15559)
human NQO1 p.P187S = target: T2, human NQO1 p.P187S (Homo sapiens, UniProt P15559, P187S); test: Differential scanning fluorimetry (FAD release on thermal denaturation); assay type: binding
T2 construct: hexahistidine; made in house; host or cells: Escherichia coli

human NQO1 p.R139W [2] = target: T3, human NQO1 p.R139W (Homo sapiens, UniProt P15559, R139W); test: as above; assay type: binding; parameters: hexahistidine; made in house; host or cells: Escherichia coli; conditions: for effect on stability towards thermal denaturation (ΔTm): p.R139W, concentration-dependent
human wild-type NQO1 [3] = target: T1, human wild-type NQO1; test: biochemical
human NQO1 p.R139W [4] = target: T3, human NQO1 p.R139W; test: biochemical
human wild-type NQO1 [5] = target: T1, human wild-type NQO1; test: Differential scanning fluorimetry (FAD release on thermal denaturation); assay type: binding; parameters: hexahistidine; made in house; host or cells: Escherichia coli; conditions: for effect on stability towards thermal denaturation (ΔTm): wild-type NQO1, concentration-dependent
human NQO1 p.R139W [6] = target: T3, human NQO1 p.R139W
[7] = wild-type, Dixon and [S]/v plots (data not shown)

T1 sequence (P15559 whole entry): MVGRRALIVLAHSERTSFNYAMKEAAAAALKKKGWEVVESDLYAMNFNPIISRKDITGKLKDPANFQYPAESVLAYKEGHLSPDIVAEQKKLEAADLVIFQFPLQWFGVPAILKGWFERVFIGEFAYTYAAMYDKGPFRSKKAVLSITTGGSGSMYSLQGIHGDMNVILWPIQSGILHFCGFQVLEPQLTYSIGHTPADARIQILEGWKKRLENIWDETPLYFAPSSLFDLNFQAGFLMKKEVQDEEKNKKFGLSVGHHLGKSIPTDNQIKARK
T3 sequence (P15559 whole entry R139W): as the sequence (P15559 whole entry) above, with R139W counted along it
T2 sequence (P15559 whole entry P187S): as the sequence (P15559 whole entry) above, with P187S counted along it

Row | Compound | type of inhibition (human wild-type NQO1 [1]; NQO1, Dixon and [S]/v plots) | Hill coefficient (h) (human wild-type NQO1 [1]; wild-type NQO1, no additional FAD, 70 μM DCPIP, 300 μM NADH, mean of three Hill plots ± SD) | effect on stability towards thermal denaturation (ΔTm) (human NQO1 p.P187S) | Kd (human NQO1 p.R139W [2]; p.R139W 2 μM dimer, from ΔTm vs inhibitor concentration, HEPES-OH pH 7.3, read-out: KD,app) [mM] | effect on stability towards thermal denaturation (ΔTm) (human NQO1 p.R139W [2]) | Ki (human wild-type NQO1 [3]) [mM] | Ki (human NQO1 p.R139W [4]) [mM] | Kd (human wild-type NQO1 [5]; wild-type NQO1 2 μM dimer, from ΔTm vs inhibitor concentration, HEPES-OH pH 7.3, read-out: KD,app) [mM] | effect on stability towards thermal denaturation (ΔTm) (human wild-type NQO1 [5]) | Hill coefficient (h) (human NQO1 p.R139W [6]; p.R139W, no additional FAD, 70 μM DCPIP, 300 μM NADH, mean of three Hill plots ± SD) | type of inhibition with respect to NADH (human wild-type NQO1 [1]; [7]) | type of inhibition with respect to NADPH (human wild-type NQO1 [1]; [7]) | type of inhibition with respect to NADH (human NQO1 p.R139W [6]; p.R139W (data not shown)) | type of inhibition with respect to NADPH (human NQO1 p.R139W [6]; p.R139W (data not shown))
1 | NC(=O)c1cccnc1 [Nicotinamide, nicotinamide] | mixed | 0.91 ± 0.06 | no detectable effect | 18.2 ± 5.2 | stabilized | 14 ± 4.34 | 13.5 ± 3.22 | 6 ± 0.9 | stabilized | 0.92 ± 0.05 |  |  |  | 
2 | Oc1ccc(/C=C/c2cc(O)cc(O)c2)cc1 [Resveratrol, resveratrol] |  |  | destabilised |  | destabilised | 0.375 ± 0.129 |  |  | destabilised |  | mixed | competitive | uncompetitive | mixed
